These results are taken from patent publication US20230131899A1, “INHIBITORS OF MICROBIALLY INDUCED AMYLOID” (Axial Therapeutics, Inc., priority 2020, published 2023).

The test system of test [1] is CsgA gene expression (csgBAC promoter-GFP reporter) in E. coli UTI89. The test is described as follows: In vitro live cell fluorescent reporter assay of CsgA transcription (Reporter Assay). Format: cell-based. Conditions: Escherichia coli; for IC50: read-out: Reporter Assay Abs IC50 (μM), median Abs IC50 in the CsgA reporter assay, N/A = maximum expression reduction is <50% of control. Summed up: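 Compounds at 0.14–100 μM (1% DMSO final) incubated 20 h at 27 °C in YESCA broth with UTI89 carrying a single-copy GFP reporter under the csgBAC intergenic promoter region, inoculum OD600 0.003. Fluorescence normalized to vehicle wells gave IC50 and 50%-of-vehicle concentration; OD600 reduction >10% flagged growth impact.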
Background: A reporter such as luciferase makes a cellular process visible.

For test [2], the target named is T1, E. coli CsgA (Escherichia coli, UniProt P28307).
T1 construct: made in house; host or cells: E. coli NEB 3016 slyD::kan, pET11d
T1 sequence (P28307 23-151): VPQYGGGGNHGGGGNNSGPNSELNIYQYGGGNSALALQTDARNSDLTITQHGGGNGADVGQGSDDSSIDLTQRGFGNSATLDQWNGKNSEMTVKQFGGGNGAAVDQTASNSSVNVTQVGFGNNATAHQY
The test is described as follows: In vitro ThioflavinT assay of CsgA aggregation (CsgA ThT Assay). The test is classed as biochemical. The essentials: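 Purified C-terminal His-tagged CsgA, monomerised by desalting and 30-kDa filtration, at 2-20 μM with 20-40 μM ThT in 50 mM potassium phosphate pH 7.3, 1% DMSO, compounds 3.125-200 uM; room temperature, fluorescence (ex 438/em 495 nm) read every 15 min. Background-subtracted signal expressed as percent inhibition versus vehicle at 6-6.5 or 8-9 h, or as percent control AUC.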

Where [3] appears, read: read-out: Reporter Assay Abs IC50, activity range, class symbol.
The mark [4] stands for this setting: read-out: CsgA ThT Assay (2 μM CsgA) % Control Bmax 25 μM, activity range, class symbol, CsgA 2 μM, white plates, compound 25 μM.
The mark [5] stands for this setting: read-out: CsgA ThT Assay (2 μM CsgA) % Control Bmax 25 μM, mean Bmax as percentage of DMSO control, CsgA 2 μM, white plates, compound 25 μM.
[6] abbreviates: read-out: CsgA ThT Assay (2 μM CsgA) % Control Bmax 100 μM, activity range, class symbol, CsgA 2 μM, white plates, compound 100 μM.
[7] abbreviates: read-out: CsgA ThT Assay (2 μM CsgA) % Control Bmax 100 μM, mean Bmax as percentage of DMSO control, CsgA 2 μM, white plates, compound 100 μM.
[8] abbreviates: read-out: Reporter Assay Abs IC50 (activity range), median Abs IC50 in the CsgA reporter assay, class symbol.
Where [9] appears, read: CsgA 10 μM, black plates, compound 25 μM, 1005 minutes, class symbol.
The mark [10] stands for this setting: read-out: CsgA ThT Assay (10 μM CsgA) % Control AUC at 1005 minutes, 25 μM (activity range), CsgA 10 μM, black plates, compound 25 μM, 1005 minutes, class symbol.
[11] abbreviates: read-out: CsgA ThT Assay (10 μM CsgA) % Control AUC at 1005 minutes, 25 μM, mean AUC as % of DMSO control, CsgA 10 μM, black plates, compound 25 μM, 1005 minutes.
Setting [12] is: read-out: CsgA ThT Assay (10 μM CsgA) % Control AUC at 1005 minutes, 100 μM (activity range), CsgA 10 μM, black plates, compound 100 μM, 1005 minutes, class symbol.
The mark [13] stands for this setting: read-out: CsgA ThT Assay (10 μM CsgA) % Control AUC at 1005 minutes, 100 μM, mean AUC as % of DMSO control, CsgA 10 μM, black plates, compound 100 μM, 1005 minutes.

pIC50: −log10 of the molar value. Where two headings read alike, the source gives them in different places.

What is called IC50 is the concentration that gives 50% inhibition. As a reminder, the pIC50 is the IC50 on a negative log10 scale, so that one unit is a factor of ten. As to `O=C(O)C1CN(Cc2ccccn2)c2c(-c3cccc(C(F)(F)F)c3)c(Cc3cccc4ccccc34)c(Cl)c(=O)n21` (stereo not drawn) [Compound 166, 6-chloro-7-(naphthalen-1-ylmethyl)-5-oxo-1-(pyridin-2-ylmethyl)-8-(3-(trifluoromethyl)phenyl)-1,2,3,5-tetrahydroimidazo[1,2-a]pyridine-3-carboxylic acid], the IC50 in test [1] amounted to 2.5 µM. For the same compound, the negative-log IC50 (pIC50) in test [1] (setting [3]) was 5.35 to 5.89. For the same compound, the remaining activity at 25 µM is above 60% in test [2] (setting [4]) and 72% in test [2] (setting [5]). In addition, the remaining activity at 100 µM is 31 to 60% in test [2] (setting [6]) and 40% in test [2] (setting [7]).
Turning to `O=C(O)C1CS(=O)(=O)c2c(-c3cccc(C(F)(F)F)c3)c(Cc3cccc4ccccc34)cc(=S)n21` (single isomer, unassigned) [Compound 014b, 7-(naphthalen-1-ylmethyl)-5-thioxo-8-(3-(trifluoromethyl)phenyl)-2,3-dihydro-5H-thiazolo[3,2-a]pyridine-3-carboxylic acid 1,1-dioxide], the negative-log IC50 (pIC50) in test [1] (setting [8]) is below 5.00. Moreover, the IC50 in test [1] was 44 µM. Besides, the “CsgA ThT Assay (10 μM CsgA) % Control AUC at 1005 minutes, 25 μM (activity range)” value in test [2] (setting [9]) is given as “(+) (% control AUC of greater than 60%)”. Further, in test [2] (CsgA 10 μM, black plates, compound 100 μM, 1005 minutes, class symbol), the “CsgA ThT Assay (10 μM CsgA) % Control AUC at 1005 minutes, 100 μM (activity range)” value was “(+++) (% control AUC of 11 to 31%)”. Further, in test [2] (mean AUC as % of DMSO control, CsgA 10 μM, black plates, compound 25 μM, 1005 minutes), the “CsgA ThT Assay (10 μM CsgA) % Control AUC at 1005 minutes, 25 μM” value stood at 71%. For the same compound, in test [2] (mean AUC as % of DMSO control, CsgA 10 μM, black plates, compound 100 μM, 1005 minutes), the “CsgA ThT Assay (10 μM CsgA) % Control AUC at 1005 minutes, 100 μM” value came out at 26%.
For the compound `O=C(O)C1CN(CCCCCO)S(=O)(=O)c2c(-c3cccc(C(F)(F)F)c3)c(Cc3cccc4ccccc34)cc(=O)n21` (stereo not drawn) [Compound 086, 2-(5-hydroxypentyl)-8-(naphthalen-1-ylmethyl)-6-oxo-9-(3-(trifluoromethyl)phenyl)-3,4-dihydro-2H,6H-pyrido[1,2-e][1,2,5]thiadiazine-4-carboxylic acid 1,1-dioxide], in test [1] (setting [8]), the pIC50 was 5.00 to 5.34. Further, in test [1], the concentration for half-maximal inhibition (IC50) was 9.6 µM. Moreover, the remaining activity at 25 µM in test [2] (setting [10]) is 31 to 60%; in test [2] (setting [11]), 33%. Moreover, the remaining activity at 100 µM in test [2] (setting [12]) was 11 to 31%; in test [2] (setting [13]), 20%.
Take `C/C=C/c1c(Cc2cccc3ccccc23)c(-c2cccc(C(F)(F)F)c2)c2n(c1=O)C(C(=O)O)CN(C)S2(=O)=O` (stereo not drawn) [Compound 088, (E)-2-methyl-8-(naphthalen-1-ylmethyl)-6-oxo-7-(prop-1-en-1-yl)-9-(3-(trifluoromethyl)phenyl)-3,4-dihydro-2H,6H-pyrido[1,2-e][1,2,5]thiadiazine-4-carboxylic acid 1,1-dioxide]: the negative logarithm of the IC50 (pIC50) in test [1] (setting [8]) is 5.00 to 5.34. Further, in test [1], the IC50 was determined as 5.2 µM. For the same compound, the figures for the remaining activity at 25 µM in test [2] (setting [10]) and in test [2] (setting [11]) were 31 to 60% and 36%, respectively. Moreover, the results for the remaining activity at 100 µM in test [2] (setting [12]) and in test [2] (setting [13]) were 11 to 31% and 26%, respectively.
Regarding `CCCN1CC(C(=O)O)n2c(cc(Cc3cccc4ccccc34)c(NC3CCCC3)c2=O)S1(=O)=O` (stereo not drawn) [Compound 006, 7-(cyclopentylamino)-8-(naphthalen-1-ylmethyl)-6-oxo-2-propyl-3,4-dihydro-2H,6H-pyrido[1,2-e][1,2,5]thiadiazine-4-carboxylic acid 1,1-dioxide], in test [1], the IC50 turned out to be 70 µM. Also, the pIC50 in test [1] (setting [3]) is below 5.00. For the same compound, the remaining activity at 25 µM in test [2] (setting [4]) is above 60%; in test [2] (setting [5]), 66%. Besides, the remaining activity at 100 µM in test [2] (setting [6]) is 31 to 60%; in test [2] (setting [7]), 34%.
Take `CCCN1CC(C(=O)O)n2c(c(-c3cccc(C(F)(F)F)c3)c(Cc3cccc4ccccc34)cc2=O)S1(=O)=O` (single isomer, unassigned) [Compound 016a, 8-(naphthalen-1-ylmethyl)-6-oxo-2-propyl-9-(3-(trifluoromethyl)phenyl)-3,4-dihydro-2H,6H-pyrido[1,2-e][1,2,5]thiadiazine-4-carboxylic acid 1,1-dioxide]: the pIC50 in test [1] (setting [8]) was 5.00 to 5.34. In addition, the IC50 in test [1] is 8.3 µM. Besides, the “CsgA ThT Assay (10 μM CsgA) % Control AUC at 1005 minutes, 25 μM (activity range)” value in test [2] (setting [9]) is recorded as “(+++) (% control AUC of 11 to 31%)”. The remaining activity at 25 µM in test [2] (setting [11]) worked out at 21%. Also, the remaining activity at 100 µM in test [2] (setting [12]) is 11 to 31%; in test [2] (setting [13]), 14%.
For `CCc1c(Cc2cccc3ccccc23)c(-c2cccc(C(F)(F)F)c2)c2n(c1=O)C(C(=O)O)CN2C` (stereo not drawn) [Compound 136, 6-ethyl-1-methyl-7-(naphthalen-1-ylmethyl)-5-oxo-8-(3-(trifluoromethyl)phenyl)-1,2,3,5-tetrahydroimidazo[1,2-a]pyridine-3-carboxylic acid], the IC50 in test [1] came out at 3.5 µM. Further, the negative logarithm of the IC50 (pIC50) in test [1] (setting [3]) is 5.35 to 5.89. For the same compound, the remaining activity at 25 µM in test [2] (setting [4]) is above 60%; in test [2] (setting [5]) it was 77%. The values for the remaining activity at 100 µM in test [2] (setting [6]) and in test [2] (setting [7]) were 11 to 31% and 27%, respectively.
Take `CN(C)Cc1c(Cc2cccc3ccccc23)c(-c2cccc(C(F)(F)F)c2)c2n(c1=O)C(C(=O)O)CS2(=O)=O` (stereo not drawn) [Compound 083, 6-((dimethylamino)methyl)-7-(naphthalen-1-ylmethyl)-5-oxo-8-(3-(trifluoromethyl)phenyl)-2,3-dihydro-5H-thiazolo[3,2-a]pyridine-3-carboxylic acid 1,1-dioxide]: in test [1] (setting [8]), the negative-log IC50 (pIC50) is below 5.00. The half-inhibitory concentration (IC50) in test [1] is 14.6 µM. Besides, the figures for the remaining activity at 25 µM in test [2] (setting [10]) and in test [2] (setting [11]) were above 60% and 102%, respectively. Also, the remaining activity at 100 µM was above 60% in test [2] (setting [12]) and 80% in test [2] (setting [13]).
With `Nc1c(Cc2cccc3ccccc23)c(-c2cccc(C(F)(F)F)c2)c2n(c1=O)C(C(=O)O)CN(CCO)S2(=O)=O` (stereo not drawn) [Compound 098, 7-amino-2-(2-hydroxyethyl)-8-(naphthalen-1-ylmethyl)-6-oxo-9-(3-(trifluoromethyl)phenyl)-3,4-dihydro-2H,6H-pyrido[1,2-e][1,2,5]thiadiazine-4-carboxylic acid 1,1-dioxide], the pIC50 in test [1] (setting [8]) was below 5.00. Moreover, the IC50 in test [1] was determined as 20.9 µM. Further, the values for the remaining activity at 25 µM in test [2] (setting [10]) and in test [2] (setting [11]) were 31 to 60% and 60%, respectively. Also, the remaining activity at 100 µM in test [2] (setting [12]) was 31 to 60%; in test [2] (setting [13]) it was 33%.
Regarding `O=C(O)C1CNS(=O)(=O)c2c(-c3cccc(C(F)(F)F)c3)c(C(F)(F)c3cccc4ccccc34)cc(=O)n21` (stereo not drawn) [Compound 137, 8-(difluoro(naphthalen-1-yl)methyl)-6-oxo-9-(3-(trifluoromethyl)phenyl)-3,4-dihydro-2H,6H-pyrido[1,2-e][1,2,5]thiadiazine-4-carboxylic acid 1,1-dioxide], the IC50 in test [1] was found to be 2.2 µM. Moreover, in test [1] (setting [3]), the negative-log IC50 (pIC50) is 5.35 to 5.89. For the same compound, the remaining activity at 25 µM in test [2] (setting [4]) was above 60%; in test [2] (setting [5]) it was 81%. The remaining activity at 100 µM in test [2] (setting [6]) was 31 to 60%; in test [2] (setting [7]), 50%.
On to `O=C(O)C1CSc2c(-c3cccc(C(F)(F)F)c3)c(C(F)(F)c3cccc4ccccc34)nc(=O)n21` (stereo not drawn) [Compound 063, 7-(difluoro(naphthalen-1-yl)methyl)-5-oxo-8-(3-(trifluoromethyl)phenyl)-2,3-dihydro-5H-thiazolo[3,2-c]pyrimidine-3-carboxylic acid], for which the negative-log IC50 (pIC50) in test [1] (setting [8]) is below 5.00. Also, the half-maximal inhibitory concentration (IC50) in test [1] was 11.2 µM. For the same compound, the remaining activity at 25 µM is above 60% in test [2] (setting [10]) and 61% in test [2] (setting [11]). Moreover, the remaining activity at 100 µM in test [2] (setting [12]) was 11 to 31%; in test [2] (setting [13]), 21%.
